Assay results published in patent US20210386792A1, “A METHOD FOR INCREASING POPULATION OF SPERMATOGONIAL STEM CELLS” (priority 2018, published 2021).

Tests used:
DS-iPS EC = test: GDNF ELISA in conditioned media from Down syndrome iPS-derived ECs; type: cell-based, human; conditions: 2 ng/ml FGF-2
Protocol: Testis, lung, or liver ECs were plated (10,000 cells ml^−1) on 12 well dishes coated with 0.1% gelatin and cultured for 24 hours. Conditioned media was harvested at 24 and 48 hours after FGF-2 (2 ng ml^−1, 20 ng ml^−1 and 50 ng ml^−1) treatment and analyzed by ELISA for GDNF (Promega GDNF Emax immunoassay system, #G7621) following the manufacturer's instruction. Statistics was analyzed using Graph Pad Prism. For quantification of Gdnf mRNA, total RNA was isolated from the cells using Direct-zol RNA MiniPrep (Zymo Research) and reverse transcribed using High Capacity cDNA Reverse Transcription Kit (Appliedbiosystems), according to the manufacturer's instructions. All gene expression levels were normalized to GAPDH mRNA levels.
To generate iPSC lines, either human fibroblasts/stromal cells were transduced with pMXs-based retroviral supernatant with human OCT4, SOX2, KLF4, or MYC as described^30, or mononuclear cells were infected with pHage2-CMV-RTTA-W and pHage-Tet-hSTEMMCA-loxP virus as described^31. All cells were culture on 0.1% gelatin-coated dishes in human endothelial cell medium (Lonza; EGM®-MV Bulletkit) with 50 ng ml^−1 additional VEGF. 500,000 disaggregated single embryonic bodies from human iPSCs were cultured for 48 hours. Non-adherent cells were gently removed and adherent cells were cultured for 1-2 passages. […]

EGR-1 [1] = test: EGR-1 expression in DS-iPS EC; type: cell-based, human
EGR-1 [2] = test: Western blot of EGR-1 expression in TECs; type: cell-based, mouse; conditions: TEC
Text: FIG. 5. GDNF expression in TECs is regulated by CaN-NFAT signaling. a. Immunouorescence images of testis sections immunostained with the stem cell markers DDX4 and Oct4 and DAPI to stain DNA. Testes were harvested from 1-week-old or 4-week-old Euploid or Ts65Dn mice. Quantication of DDX4+ and Oct4+ cells relative to DAPI per high-powered eld (HPF) is shown on the right, ***P<0.0001. Bar=50 μm. Two-way ANOVA test. b. […] Values are mean±s.e.m. n=4. c. Quantication of GDNF levels by ELISA in conditioned media from murine TECs, LuEC and LiEC after 2 ngml-1 FGF-2 treatment in the presence or absence of CsA. Values are mean±s.e.m., n=4. d. H&E-stained cross-sections from testes of age-matched Euploid, Ts65Dn or Ts65Dn mice 5 weeks after implantation with GFP+ TECs isolated from syngeneic wild-type mice (Ts65Dn+GFP+ TECs). Red dotted line encircles mature sperm (yellow arrow) in the lumen of the seminiferous tubules. Immunouorescence images with GFP and DAPI to stain DNA of testis sections from Ts65Dn+GFP+TECs mice. e. Western blot analysis of EGR-1 protein expression in TECs and LuECs untreated or after FGF-2 treatment, expression of constitutively active NFATc1 (caNFATc1) or an empty vector control. Actin was probed as a loading control. f. Quantication of nuclear translocation of EGR1 and NFATc1 in TECs after treatment with conditioned media (CM), 2 ng ml-1 FGF-2±CsA. Values are mean±s.e.m. g. […]

Substance: fibroblast growth factor-2 [FGF-2]
- GDNF production after FGF2 treatment (DS-iPS EC): relatively modest induction of GDNF
- EGR-1 expression after FGF treatment (EGR-1 [1]): minimal EGR-1 expression
- EGR-1 expression after FGF-2 treatment (EGR-1 [2]): increased EGR-1 expression
